US20160009693A1, “HERBICIDAL COMPOUNDS” (SYNGENTA LIMITED, priority 2013, published 2016)

Columns and labels:
Assay type in all cases: in vivo
Conditions in all cases: applied at 1000 g/h, evaluated after 13 days
[1] = tested on: Ipomoea hederacea (IPOHE); assay: Herbicidal glasshouse test, pre-emergence, IPOHE
Setaria faberi (SETFA) [2] = assay: Herbicidal glasshouse test, pre-emergence, SETFA
[3] = tested on: Alopecurus myosuroides (ALOMY); assay: Herbicidal glasshouse test, pre-emergence, ALOMY
[4] = tested on: Alopecurus myosuroides (ALOMY); assay: Herbicidal glasshouse test, post-emergence, ALOMY
[5] = tested on: Echinochloa crus-galli (ECHCG); assay: Herbicidal glasshouse test, pre-emergence, ECHCG
Method in brief: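 In this pre-emergence glasshouse test, ECHCG seeds sown in pots of standard soil were sprayed one day after sowing with the test material in acetone/water (50:50) containing 0.5% Tween 20. Plants were kept at 24/16° C., 14 hours light, 65% humidity, and watered twice daily. Percentage damage was rated after 13 days on a 1–5 scale.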

[6] = tested on: Echinochloa crus-galli (ECHCG); assay: Herbicidal glasshouse test, post-emergence, ECHCG
Method in brief: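 In this post-emergence glasshouse test, barnyard grass (ECHCG) was cultivated for 8 days under controlled conditions (24/16° C. day/night, 14 hours light, 65% humidity). It was then sprayed with an aqueous solution of the technical compound in acetone / water (50:50) with 0.5% Tween 20. Plants were kept under the same conditions and watered twice daily. After 13 days, percentage damage was rated on a five point scale (5=80-100%; 1=0-19%).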

[7] = tested on: Amaranthus retoflexus (AMARE); assay: Herbicidal glasshouse test, pre-emergence, AMARE
Method in brief: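 This pre-emergence glasshouse herbicide test used Amaranthus retoflexus sown in standard soil. After one day of cultivation, an aqueous spray made from the technical ingredient in 50:50 acetone/water with 0.5% Tween 20 was applied. Pots stayed at 24/16° C., 14 hours light, 65% humidity, with twice-daily watering. Damage was rated on a five point scale (1=0-19% up to 5=80-100%).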

Solanum nigrum (SOLNI) [8] = assay: Herbicidal glasshouse test, post-emergence, SOLNI
[9] = tested on: Amaranthus retoflexus (AMARE); assay: Herbicidal glasshouse test, post-emergence, AMARE
Method in brief: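 This post-emergence glasshouse test used AMARE plants raised in standard soil for 8 days under controlled conditions (24/16° C. day/night, 14 hours light, 65% humidity). Foliage was sprayed with formulated compound in acetone/water (50:50) containing 0.5% Tween 20. Plants were then watered twice daily, and after 13 days percentage damage was rated on a five point scale.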

[10] = tested on: Ipomoea hederacea (IPOHE); assay: Herbicidal glasshouse test, post-emergence, IPOHE
Setaria faberi (SETFA) [11] = assay: Herbicidal glasshouse test, post-emergence, SETFA
Method in brief: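 This post-emergence glasshouse herbicide test used potted Setaria faberi. Plants were cultivated for 8 days under controlled conditions (24/16° C. day/night, 14 hours light, 65% humidity) and then treated with an aqueous spray made from an acetone/water (50:50) solution containing 0.5% Tween 20. After 13 days of further growth with twice-daily watering, damage was rated on a five point scale (5=80-100%; 1=0-19%).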

Solanum nigrum (SOLNI) [12] = assay: Herbicidal glasshouse test, pre-emergence, SOLNI
Method in brief: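 This pre-emergence glasshouse herbicide test used Solanum nigrum sown in standard soil. One day after sowing, pots were sprayed with the compound in acetone/water (50:50) with 0.5% Tween 20. They were then grown at 24/16° C., with 14 hours light and 65% humidity, and watered twice daily. Percentage damage was scored after 13 days on a five point scale, where 5=80-100% and 1=0-19%.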

Structure (SMILES) | PRE Application IPOHE, percentage damage (five point scale) [1] | PRE Application SETFA, percentage damage (five point scale) (Setaria faberi (SETFA) [2]) | PRE Application ALOMY, percentage damage (five point scale) [3] | POST Application ALOMY, percentage damage (five point scale) [4] | PRE Application ECHCG, percentage damage (five point scale) [5] | POST Application ECHCG, percentage damage (five point scale) [6] | PRE Application AMARE, percentage damage (five point scale) [7] | POST Application SOLNI, percentage damage (five point scale) (Solanum nigrum (SOLNI) [8]) | POST Application AMARE, percentage damage (five point scale) [9] | POST Application IPOHE, percentage damage (five point scale) [10] | POST Application SETFA, percentage damage (five point scale) (Setaria faberi (SETFA) [11]) | PRE Application SOLNI, percentage damage (five point scale) (Solanum nigrum (SOLNI) [12])
COCCOc1ccc(-n2c(=O)c(C(=O)Nc3nnnn3C)nn(C)c2=O)cc1 [Compound 1.023] | 5 (5=80-100%) | 5 (5=80-100%) | 5 (5=80-100%) | 5 (5=80-100%) | 5 (5=80-100%) | 5 (5=80-100%) | 5 (5=80-100%) | 5 (5=80-100%) | 5 (5=80-100%) | 5 (5=80-100%) | 5 (5=80-100%) | 5 (5=80-100%)
Cn1nnnc1NC(=O)c1nn(C)c(=O)n(Cc2c(F)cccc2F)c1=O [Compound 1.065] | 5 (5=80-100%) | 5 (5=80-100%) | 5 (5=80-100%) | 5 (5=80-100%) | 5 (5=80-100%) | 5 (5=80-100%) | 5 (5=80-100%) | 5 (5=80-100%) | 5 (5=80-100%) | 5 (5=80-100%) | 5 (5=80-100%) | 5 (5=80-100%)
Cn1nnnc1NC(=O)c1nn(C)c(=O)n(-c2ccc(OC(F)(F)F)c(F)c2)c1=O [Compound 1.029] | 5 (5=80-100%) | 5 (5=80-100%) | 5 (5=80-100%) | 5 (5=80-100%) | 5 (5=80-100%) | 5 (5=80-100%) | 5 (5=80-100%) | 5 (5=80-100%) | 5 (5=80-100%) | 5 (5=80-100%) | 5 (5=80-100%) | 5 (5=80-100%)
Cc1cccc(-n2c(=O)c(C(=O)Nc3nnnn3C)nn(C)c2=O)c1 [Compound 1.053] | 5 (5=80-100%) | 3 (3=40-59%) | 5 (5=80-100%) | 5 (5=80-100%) | 5 (5=80-100%) | 4 (4=60-79%) | 5 (5=80-100%) | 5 (5=80-100%) | 5 (5=80-100%) | 5 (5=80-100%) | 3 (3=40-59%) | 5 (5=80-100%)
